Measurements reported in the NIST ThermoML archive (doi:10.1021/je5008789).

Settings: Liquid; for mass density: Vibrating tube method; for viscosity: Vibrating wire viscometry

CC(C)CCCC(C)CCCC(C)CCCCC(C)CCCC(C)CCCC(C)C (configuration not stated) [2,6,10,15,19,23-hexamethyltetracosane]
Settings	mass density [kg/m3]	viscosity [mPa·s]
338.19 K, 1050 kPa	779.26	6.815
338.19 K, 21210 kPa	792.77	9.666
338.2 K, 40640 kPa	803.93	13.19
338.2 K, 60420 kPa	814.29	17.71
338.2 K, 79830 kPa	822.46	23.48
338.2 K, 100230 kPa	831.55	30.94
338.2 K, 140240 kPa	845.12	52.3
338.2 K, 161300 kPa	851.46	68.14
338.21 K, 119820 kPa	837.96	40.32
338.22 K, 940 kPa	778.91	6.808
338.29 K, 1010 kPa	779.46	6.83
373.12 K, 620 kPa	756.02	3.122
373.12 K, 780 kPa	756.09	3.125
373.12 K, 20350 kPa	771.55	4.234
373.12 K, 39970 kPa	784.5	5.565
373.12 K, 60030 kPa	795.89	7.219
373.12 K, 80950 kPa	806.36	9.293
373.12 K, 101160 kPa	815.48	11.72
373.12 K, 120420 kPa	823.57	14.4
373.12 K, 140640 kPa	831.1	17.83
373.12 K, 159510 kPa	837.61	21.73
373.12 K, 180460 kPa	843.98	26.77
373.12 K, 201380 kPa	850.63	32.72
388.13 K, 890 kPa	746.65	2.432
388.13 K, 20290 kPa	762.98	3.25
388.13 K, 80490 kPa	799.25	6.828
388.13 K, 101530 kPa	809.12	8.548
388.13 K, 120960 kPa	817.16	10.46
388.13 K, 139900 kPa	824.59	12.58
388.14 K, 1100 kPa	746.78	2.436
388.14 K, 40380 kPa	776.95	4.242
388.14 K, 59850 kPa	788.53	5.392
388.14 K, 160800 kPa	832.35	15.31
388.14 K, 180610 kPa	838.96	18.4
388.14 K, 201470 kPa	845.55	22.16
413.17 K, 1050 kPa	730.56	1.691
413.18 K, 20110 kPa	748.65	2.233
413.18 K, 40280 kPa	763.94	2.885
413.18 K, 60200 kPa	776.68	3.62
413.21 K, 80740 kPa	788.16	4.485
413.22 K, 100350 kPa	797.82	5.454
413.22 K, 120460 kPa	806.56	6.574
413.24 K, 610 kPa	730.1	1.68
413.24 K, 140200 kPa	815.07	7.831
413.25 K, 160570 kPa	822.8	9.322
413.25 K, 181450 kPa	829.85	11.12
413.25 K, 202090 kPa	836.75	13.06
433.18 K, 1120 kPa	717.8	1.324
433.19 K, 60430 kPa	767.55	2.785
433.19 K, 160660 kPa	815.65	6.774
433.19 K, 180700 kPa	823.09	7.891
433.19 K, 200370 kPa	830.05	9.057
433.2 K, 80190 kPa	779.13	3.392
433.21 K, 100280 kPa	789.84	4.072
433.21 K, 120040 kPa	798.72	4.865
433.21 K, 140200 kPa	807.55	5.754
433.31 K, 600 kPa	717.04	1.309
433.35 K, 20500 kPa	737.74	1.749
433.36 K, 680 kPa	717.22	1.309
433.36 K, 40310 kPa	753.83	2.231
452.85 K, 201770 kPa	823.37	6.867
452.95 K, 163170 kPa	809.3	5.261
452.95 K, 180270 kPa	815.84	5.937
453.15 K, 1150 kPa	704.74	1.062
453.16 K, 20190 kPa	726.4	1.405
453.17 K, 40450 kPa	744.09	1.796
453.18 K, 60480 kPa	758.43	2.222
453.18 K, 80140 kPa	770.59	2.681
453.18 K, 100410 kPa	781.58	3.214
453.19 K, 160150 kPa	808.49	5.142
453.2 K, 120790 kPa	791.61	3.8
453.2 K, 140400 kPa	800.32	4.438
453.2 K, 180710 kPa	816.55	5.945
472.81 K, 1050 kPa	691.59	0.867
473.03 K, 200210 kPa	815.83	5.348
473.04 K, 1050 kPa	691.45	0.868
473.05 K, 150 kPa	690.19	0.853
473.05 K, 20040 kPa	715.2	1.151
473.05 K, 39890 kPa	733.71	1.465
473.05 K, 120200 kPa	783.48	3.031
473.05 K, 140440 kPa	792.71	3.531
473.05 K, 160340 kPa	801	4.073
473.05 K, 180470 kPa	808.83	4.671
473.06 K, 60230 kPa	749.17	1.81
473.06 K, 79910 kPa	761.86	2.175
473.07 K, 100370 kPa	773.42	2.59
